# Assay results reported in paper PMC12102759 (Protein Science : A Publication of the Protein Society, 2025).
# Read-outs that look alike come from different tables or passages of the source.
# Tested on: PABPC1 PABC
# Type: binding, human
# Details: DMS-BM library, bait PABPC1 PABC, row aa = residue at this position; for DMS-derived PSSM value, position S15 / DMS-derived PSSM value (averaged), position S13 / DMS-derived PSSM value, position S13 / DMS-derived PSSM value, position S2: S = wild type; for DMS-derived PSSM value, position E10 / DMS-derived PSSM value (averaged), position E8 / DMS-derived PSSM value, position E8: E = wild type
# [1] = prey ATXN2, peptide TLNPNAKEFNPRSFSQ, N = wild type
# [2] = prey ATXN2, peptide TLNPNAKEFNPRSFSQ, K = wild type
# [3] = prey ATXN2, peptide KSTLNPNAKEFNPRSF
# [4] = prey ATXN2, peptide KSTLNPNAKEFNPRSF, T = wild type
# [5] = prey ATXN2, peptide KSTLNPNAKEFNPRSF, N = wild type
# [6] = prey ATXN2, peptide TLNPNAKEFNPRSFSQ
# [7] = prey ATXN2, peptide TLNPNAKEFNPRSFSQ, T = wild type
# [8] = prey ATXN2, TLNPNAKEFNPRSF(averaged) over the two overlapping peptides
# [9] = prey ATXN2, TLNPNAKEFNPRSF(averaged) over the two overlapping peptides, F = wild type
# [10] = prey ATXN2, peptide KSTLNPNAKEFNPRSF, A = wild type
# [11] = prey ATXN2, peptide KSTLNPNAKEFNPRSF, R = wild type
# [12] = prey ATXN2, TLNPNAKEFNPRSF(averaged) over the two overlapping peptides, N = wild type
# [13] = prey ATXN2, peptide TLNPNAKEFNPRSFSQ, F = wild type
# [14] = prey ATXN2, TLNPNAKEFNPRSF(averaged) over the two overlapping peptides, P = wild type
substance,measurement,setting,value
TLNPNAKEFNPRSFSQ N5H (TLNPHAKEFNPRSFSQ),"DMS-derived PSSM value, position N5",[1],0.04051
TLNPNAKEFNPRSFSQ N3S (TLSPNAKEFNPRSFSQ),"DMS-derived PSSM value, position N3",[1],0.4554
TLNPNAKEFNPRSFSQ K7Y (TLNPNAYEFNPRSFSQ),"DMS-derived PSSM value, position K7",[2],0.472
KSTLNPNAKEFNPRSF S15R (KSTLNPNAKEFNPRRF),"DMS-derived PSSM value, position S15",[3],0.007958
KSTLNPNAKEFNPRSF T3H (KSHLNPNAKEFNPRSF),"DMS-derived PSSM value, position T3",[4],0.01262
TLNPNAKEFNPRSFSQ K7L (TLNPNALEFNPRSFSQ),"DMS-derived PSSM value, position K7",[2],0.0009142
KSTLNPNAKEFNPRSF N7Y (KSTLNPYAKEFNPRSF),"DMS-derived PSSM value, position N7",[5],0.00548
TLNPNAKEFNPRSFSQ S15M (TLNPNAKEFNPRSFMQ),"DMS-derived PSSM value, position S15",[6],0.1078
TLNPNAKEFNPRSFSQ T1R (RLNPNAKEFNPRSFSQ),"DMS-derived PSSM value, position T1",[7],0.08249
TLNPNAKEFNPRSF(averaged) S13K (TLNPNAKEFNPRKF),"DMS-derived PSSM value (averaged), position S13",[8],0.003966
TLNPNAKEFNPRSF(averaged) F9K (TLNPNAKEKNPRSF),"DMS-derived PSSM value (averaged), position F9",[9],0.003046
TLNPNAKEFNPRSF(averaged) T1Q (QLNPNAKEFNPRSF),"DMS-derived PSSM value (averaged), position T1","prey ATXN2, TLNPNAKEFNPRSF(averaged) over the two overlapping peptides, T = wild type",0.003845
KSTLNPNAKEFNPRSF E10S (KSTLNPNAKSFNPRSF),"DMS-derived PSSM value, position E10",[3],0
TLNPNAKEFNPRSFSQ S13D (TLNPNAKEFNPRDFSQ),"DMS-derived PSSM value, position S13",[6],0.05929
KSTLNPNAKEFNPRSF F11H (KSTLNPNAKEHNPRSF),"DMS-derived PSSM value, position F11","prey ATXN2, peptide KSTLNPNAKEFNPRSF, F = wild type",0
KSTLNPNAKEFNPRSF N5K (KSTLKPNAKEFNPRSF),"DMS-derived PSSM value, position N5",[5],0
KSTLNPNAKEFNPRSF A8D (KSTLNPNDKEFNPRSF),"DMS-derived PSSM value, position A8",[10],0
TLNPNAKEFNPRSFSQ T1Q (QLNPNAKEFNPRSFSQ),"DMS-derived PSSM value, position T1",[7],0.00769
KSTLNPNAKEFNPRSF E10M (KSTLNPNAKMFNPRSF),"DMS-derived PSSM value, position E10",[3],0.002857
TLNPNAKEFNPRSF(averaged) F14N (TLNPNAKEFNPRSN),"DMS-derived PSSM value (averaged), position F14",[9],0.05683
TLNPNAKEFNPRSFSQ N10E (TLNPNAKEFEPRSFSQ),"DMS-derived PSSM value, position N10",[1],0.00197
KSTLNPNAKEFNPRSF R14W (KSTLNPNAKEFNPWSF),"DMS-derived PSSM value, position R14",[11],0.1772
TLNPNAKEFNPRSFSQ S15G (TLNPNAKEFNPRSFGQ),"DMS-derived PSSM value, position S15",[6],0.2429
TLNPNAKEFNPRSF(averaged) N10M (TLNPNAKEFMPRSF),"DMS-derived PSSM value (averaged), position N10",[12],0.09167
TLNPNAKEFNPRSFSQ F14N (TLNPNAKEFNPRSNSQ),"DMS-derived PSSM value, position F14",[13],0.0664
KSTLNPNAKEFNPRSF N5R (KSTLRPNAKEFNPRSF),"DMS-derived PSSM value, position N5",[5],0
TLNPNAKEFNPRSFSQ F14T (TLNPNAKEFNPRSTSQ),"DMS-derived PSSM value, position F14",[13],0.006633
TLNPNAKEFNPRSF(averaged) N5K (TLNPKAKEFNPRSF),"DMS-derived PSSM value (averaged), position N5",[12],0.009917
TLNPNAKEFNPRSF(averaged) A6K (TLNPNKKEFNPRSF),"DMS-derived PSSM value (averaged), position A6","prey ATXN2, TLNPNAKEFNPRSF(averaged) over the two overlapping peptides, A = wild type",0
TLNPNAKEFNPRSFSQ S15H (TLNPNAKEFNPRSFHQ),"DMS-derived PSSM value, position S15",[6],0.01215
TLNPNAKEFNPRSFSQ L2F (TFNPNAKEFNPRSFSQ),"DMS-derived PSSM value, position L2","prey ATXN2, peptide TLNPNAKEFNPRSFSQ, L = wild type",0.1032
TLNPNAKEFNPRSF(averaged) E8M (TLNPNAKMFNPRSF),"DMS-derived PSSM value (averaged), position E8",[8],0.02105
TLNPNAKEFNPRSF(averaged) R12E (TLNPNAKEFNPESF),"DMS-derived PSSM value (averaged), position R12","prey ATXN2, TLNPNAKEFNPRSF(averaged) over the two overlapping peptides, R = wild type",0.01393
TLNPNAKEFNPRSF(averaged) F9I (TLNPNAKEINPRSF),"DMS-derived PSSM value (averaged), position F9",[9],0
KSTLNPNAKEFNPRSF N5V (KSTLVPNAKEFNPRSF),"DMS-derived PSSM value, position N5",[5],0
TLNPNAKEFNPRSFSQ P4A (TLNANAKEFNPRSFSQ),"DMS-derived PSSM value, position P4","prey ATXN2, peptide TLNPNAKEFNPRSFSQ, P = wild type",0.02051
TLNPNAKEFNPRSF(averaged) F14G (TLNPNAKEFNPRSG),"DMS-derived PSSM value (averaged), position F14",[9],0.002756
TLNPNAKEFNPRSF(averaged) E8V (TLNPNAKVFNPRSF),"DMS-derived PSSM value (averaged), position E8",[8],0.141
KSTLNPNAKEFNPRSF T3I (KSILNPNAKEFNPRSF),"DMS-derived PSSM value, position T3",[4],0.1667
TLNPNAKEFNPRSFSQ N3V (TLVPNAKEFNPRSFSQ),"DMS-derived PSSM value, position N3",[1],0
TLNPNAKEFNPRSF(averaged) S13W (TLNPNAKEFNPRWF),"DMS-derived PSSM value (averaged), position S13",[8],0.01751
TLNPNAKEFNPRSFSQ F14P (TLNPNAKEFNPRSPSQ),"DMS-derived PSSM value, position F14",[13],0.06984
TLNPNAKEFNPRSF(averaged) N10S (TLNPNAKEFSPRSF),"DMS-derived PSSM value (averaged), position N10",[12],0.02002
TLNPNAKEFNPRSF(averaged) P11Y (TLNPNAKEFNYRSF),"DMS-derived PSSM value (averaged), position P11",[14],0.02499
TLNPNAKEFNPRSFSQ F9M (TLNPNAKEMNPRSFSQ),"DMS-derived PSSM value, position F9",[13],0
TLNPNAKEFNPRSF(averaged) N10K (TLNPNAKEFKPRSF),"DMS-derived PSSM value (averaged), position N10",[12],0.01006
KSTLNPNAKEFNPRSF S15Q (KSTLNPNAKEFNPRQF),"DMS-derived PSSM value, position S15",[3],0
KSTLNPNAKEFNPRSF N7A (KSTLNPAAKEFNPRSF),"DMS-derived PSSM value, position N7",[5],0.01018
TLNPNAKEFNPRSFSQ R12Y (TLNPNAKEFNPYSFSQ),"DMS-derived PSSM value, position R12","prey ATXN2, peptide TLNPNAKEFNPRSFSQ, R = wild type",0.05186
KSTLNPNAKEFNPRSF N5E (KSTLEPNAKEFNPRSF),"DMS-derived PSSM value, position N5",[5],0
KSTLNPNAKEFNPRSF A8I (KSTLNPNIKEFNPRSF),"DMS-derived PSSM value, position A8",[10],0
KSTLNPNAKEFNPRSF N12V (KSTLNPNAKEFVPRSF),"DMS-derived PSSM value, position N12",[5],0.2093
KSTLNPNAKEFNPRSF S2V (KVTLNPNAKEFNPRSF),"DMS-derived PSSM value, position S2",[3],0.1043
TLNPNAKEFNPRSF(averaged) E8N (TLNPNAKNFNPRSF),"DMS-derived PSSM value (averaged), position E8",[8],0.07264
TLNPNAKEFNPRSFSQ F14K (TLNPNAKEFNPRSKSQ),"DMS-derived PSSM value, position F14",[13],0.003921
TLNPNAKEFNPRSFSQ F14H (TLNPNAKEFNPRSHSQ),"DMS-derived PSSM value, position F14",[13],0.09586
TLNPNAKEFNPRSF(averaged) N5R (TLNPRAKEFNPRSF),"DMS-derived PSSM value (averaged), position N5",[12],0.004628
TLNPNAKEFNPRSFSQ F14L (TLNPNAKEFNPRSLSQ),"DMS-derived PSSM value, position F14",[13],0.08923
TLNPNAKEFNPRSF(averaged) K7A (TLNPNAAEFNPRSF),"DMS-derived PSSM value (averaged), position K7","prey ATXN2, TLNPNAKEFNPRSF(averaged) over the two overlapping peptides, K = wild type",0.1204
KSTLNPNAKEFNPRSF R14D (KSTLNPNAKEFNPDSF),"DMS-derived PSSM value, position R14",[11],0
TLNPNAKEFNPRSF(averaged) F14D (TLNPNAKEFNPRSD),"DMS-derived PSSM value (averaged), position F14",[9],0.01885
TLNPNAKEFNPRSF(averaged) E8A (TLNPNAKAFNPRSF),"DMS-derived PSSM value (averaged), position E8",[8],0.01267
TLNPNAKEFNPRSFSQ E8Y (TLNPNAKYFNPRSFSQ),"DMS-derived PSSM value, position E8",[6],0.04993
TLNPNAKEFNPRSFSQ S13E (TLNPNAKEFNPREFSQ),"DMS-derived PSSM value, position S13",[6],0.006231
KSTLNPNAKEFNPRSF S2G (KGTLNPNAKEFNPRSF),"DMS-derived PSSM value, position S2",[3],0.02803
TLNPNAKEFNPRSFSQ E8M (TLNPNAKMFNPRSFSQ),"DMS-derived PSSM value, position E8",[6],0.03925
TLNPNAKEFNPRSF(averaged) F14E (TLNPNAKEFNPRSE),"DMS-derived PSSM value (averaged), position F14",[9],0.01777
TLNPNAKEFNPRSF(averaged) P11Q (TLNPNAKEFNQRSF),"DMS-derived PSSM value (averaged), position P11",[14],0.04932
KSTLNPNAKEFNPRSF R14G (KSTLNPNAKEFNPGSF),"DMS-derived PSSM value, position R14",[11],0.105
